Our source for the IC50 values is the Kinase Knowledgebase extract (Sharma et al. 2016).

Where only a bound is given, the exact number is not on record here.

Usually IC50 stands for the concentration at which inhibition is half-maximal. Low readings indicate higher potency, high ones lower potency.

Chain of EGFR (P00533 whole entry, looked up): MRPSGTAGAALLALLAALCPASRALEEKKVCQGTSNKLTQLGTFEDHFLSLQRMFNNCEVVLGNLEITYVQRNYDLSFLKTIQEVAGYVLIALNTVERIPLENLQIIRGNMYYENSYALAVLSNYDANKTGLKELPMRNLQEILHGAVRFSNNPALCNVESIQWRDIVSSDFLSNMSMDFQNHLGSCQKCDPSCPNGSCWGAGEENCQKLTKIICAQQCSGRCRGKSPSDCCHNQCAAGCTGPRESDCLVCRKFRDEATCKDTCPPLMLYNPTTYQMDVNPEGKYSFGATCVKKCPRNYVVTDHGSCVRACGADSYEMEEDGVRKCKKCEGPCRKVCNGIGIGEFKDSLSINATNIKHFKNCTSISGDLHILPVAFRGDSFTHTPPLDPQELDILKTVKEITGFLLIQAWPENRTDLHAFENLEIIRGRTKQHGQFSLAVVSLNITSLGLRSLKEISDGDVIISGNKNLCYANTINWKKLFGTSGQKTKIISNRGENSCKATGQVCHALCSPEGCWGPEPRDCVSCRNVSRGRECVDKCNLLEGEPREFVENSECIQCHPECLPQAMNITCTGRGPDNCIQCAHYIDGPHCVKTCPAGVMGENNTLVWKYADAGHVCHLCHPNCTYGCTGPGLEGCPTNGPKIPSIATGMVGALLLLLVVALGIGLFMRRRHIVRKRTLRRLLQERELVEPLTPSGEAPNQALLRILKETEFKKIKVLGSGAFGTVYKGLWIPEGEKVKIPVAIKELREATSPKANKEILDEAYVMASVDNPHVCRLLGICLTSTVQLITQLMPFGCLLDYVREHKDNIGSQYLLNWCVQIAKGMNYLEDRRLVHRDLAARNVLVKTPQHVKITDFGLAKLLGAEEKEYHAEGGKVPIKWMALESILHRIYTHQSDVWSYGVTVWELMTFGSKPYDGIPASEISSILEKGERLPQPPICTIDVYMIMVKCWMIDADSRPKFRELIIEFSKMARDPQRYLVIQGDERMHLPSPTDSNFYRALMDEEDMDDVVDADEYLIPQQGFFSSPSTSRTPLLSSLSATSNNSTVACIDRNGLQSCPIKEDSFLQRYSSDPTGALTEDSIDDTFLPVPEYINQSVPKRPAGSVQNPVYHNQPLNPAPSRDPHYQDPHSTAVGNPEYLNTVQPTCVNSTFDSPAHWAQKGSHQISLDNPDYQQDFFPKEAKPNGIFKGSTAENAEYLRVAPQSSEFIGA

This assay has as its target EGFR (UniProt P00533).
`CCN1CCC(Nc2ccc3c(c2)/C(=C(\c2ccc(Cl)cc2)c2nc4ccccc4[nH]2)C(=O)N3)CC1` gave an IC50 of 0.05 to 0.5 µM.
The same measure for `COCCN1CCC(Nc2ccc3c(c2)/C(=C(\c2ccccc2)c2ncc[nH]2)C(=O)N3)CC1`: greater than 5 µM.
The same measure for `COCCN1CCC(Nc2ccc3c(c2)/C(=C(\c2ccc(C(F)(F)F)nc2)c2ncc[nH]2)C(=O)N3)CC1`: greater than 5 µM.
Then `Cc1ccc(/C(=C2/C(=O)Nc3ccc(NC4CCN(C)CC4)cc32)c2ncc[nH]2)cc1`, with 0.05 to 0.5 µM; and `CCN1CCC(Nc2ccc3c(c2)/C(=C(\c2ccc(N)cc2)c2nc4ccccc4[nH]2)C(=O)N3)CC1`, with 0.05 to 0.5 µM.
As for `COCCN1CCC(Nc2ccc3c(c2)/C(=C(\c2ccccc2)c2nc4ccccc4[nH]2)C(=O)N3)CC1`, the IC50 was 0.05 to 0.5 µM.
Then `CCN1CCC(Nc2ccc3c(c2)/C(=C(\c2ccc(C(F)(F)F)cc2)c2ncc[nH]2)C(=O)N3)CC1`, with 0.5 to 5 µM; and `COCCN1CCC(Nc2ccc3c(c2)/C(=C(\c2cccc(F)c2)c2ncc[nH]2)C(=O)N3)CC1`, with 0.05 to 0.5 µM; and `COCCN1CCC(Nc2ccc3c(c2)/C(=C(\c2cc(F)cc(F)c2)c2nc4ccccc4[nH]2)C(=O)N3)CC1`, with 0.05 to 0.5 µM.
The same measure for `CCN1CCC(Oc2ccc3c(c2)/C(=C(\c2cccc(OC)c2)c2nc4ccccc4[nH]2)C(=O)N3)CC1`: 0.5 to 5 µM; for `CCN1CCC(Nc2ccc3c(c2)/C(=C(/c2ncc[nH]2)c2ccc(F)cc2F)C(=O)N3)CC1`: 0.05 to 0.5 µM; for `COCCN1CCC(Nc2ccc3c(c2)/C(=C(\c2ccc(C)cc2)c2nc(C)c[nH]2)C(=O)N3)CC1`: 0.05 to 0.5 µM.
The same measure for `COCCN1CCC(Nc2ccc3c(c2)/C(=C(\c2cc(F)cc(F)c2)c2nc(C)c[nH]2)C(=O)N3)CC1`: 0.05 to 0.5 µM; for `COCCN1CCC(Nc2ccc3c(c2)/C(=C(\c2cccc(OC)c2)c2nc4ccccc4[nH]2)C(=O)N3)CC1`: 0.5 to 5 µM.
`COCCN1CCC(Nc2ccc3c(c2)/C(=C(\c2ccc(C)c(F)c2)c2nc(C)c[nH]2)C(=O)N3)CC1`: the IC50 is less than 0.05 µM.
The same measure for `COCCN1CCC(Nc2ccc3c(c2)/C(=C(\c2cc(F)cc(F)c2)c2ncc[nH]2)C(=O)N3)CC1`: 0.05 to 0.5 µM; for `CCN1CCC(Oc2ccc3c(c2)/C(=C(\c2ccccc2)c2nc4cc(OC)ccc4[nH]2)C(=O)N3)CC1`: 0.5 to 5 µM; for `CCN1CCC(Nc2ccc3c(c2)/C(=C(\c2ccc(F)cc2)c2nc(C)c[nH]2)C(=O)N3)CC1`: 0.05 to 0.5 µM.
`CCN1CCC(Nc2ccc3c(c2)/C(=C(/c2ncc[nH]2)c2ccc(C(F)(F)F)cc2F)C(=O)N3)CC1`: the IC50 was 0.05 to 0.5 µM.
The same measure for `CS(=O)(=O)N1CCC(Nc2ccc3c(c2)/C(=C(\c2ccccc2)c2nc4ccccc4[nH]2)C(=O)N3)CC1`: 0.5 to 5 µM; for `CCN1CCC(Nc2ccc3c(c2)/C(=C(/c2nc(C)c[nH]2)c2cc(F)c(Cl)cc2Cl)C(=O)N3)CC1`: 0.05 to 0.5 µM; for `CCN1CCC(Nc2ccc3c(c2)/C(=C(/c2ncc[nH]2)c2cc(F)c(Cl)cc2Cl)C(=O)N3)CC1`: 0.05 to 0.5 µM.
Molecule `CCN1CCC(Nc2ccc3c(c2)/C(=C(\c2ccc(F)c(Cl)c2)c2ncc[nH]2)C(=O)N3)CC1` gave a 50% inhibitory concentration (IC50) of 0.5 to 5 µM.
As to `O=C1Nc2ccc(NC3CCNCC3)cc2/C1=C(\c1ccccc1)c1nc2ccccc2[nH]1`, the IC50 fell in the range of 0.5 to 5 µM.
Then `CCN1CCC(Nc2ccc3c(c2)/C(=C(\c2ccc([N+](=O)[O-])cc2)c2nc4ccccc4[nH]2)C(=O)N3)CC1`, with 0.5 to 5 µM; and `CCN1CCC(Nc2ccc3c(c2)/C(=C(\c2cccc(F)c2)c2ncn[nH]2)C(=O)N3)CC1`, with greater than 5 µM; and `CCN1CCC(Nc2ccc3c(c2)/C(=C(\c2ccc(F)cc2)c2ncc[nH]2)C(=O)N3)CC1`, with 0.5 to 5 µM.
As for `CCN1CCC(Nc2ccc3c(c2)/C(=C(\c2ccc(F)cc2)c2nc4ccccc4[nH]2)C(=O)N3)CC1`, the IC50 lay within 0.5 to 5 µM.
Then `COCCN1CCC(Nc2ccc3c(c2)/C(=C(\c2cccc(F)c2)c2nc(C)c[nH]2)C(=O)N3)CC1`, with 0.05 to 0.5 µM.
